According to the supplement of paper PMC12420376:

Experiments:
KURAMOCHI = experiment: drug sensitivity score (DSS2) on cancer cell count; higher = more sensitive; extreme values may be limits of the assay; conditions: 72 h
In short: (§1)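 Ovarian cancer cells were cultured either alone or directly mixed 1:1 with lung or skin fibroblasts and plated onto 384-well plates acoustically pre-spotted with 528 approved and investigational compounds at 5 concentrations for 72 h of treatment. After fixation, cells were immunostained for CK8/18 with Hoechst and imaged at 10× across 4 fields to count cancer cells. Responses were fitted with 4-parameter logistic curves, and from these fits a drug sensitivity score was derived in Breeze, with screen quality assessed by Z'.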

OVCAR8 = experiment: as above; conditions: 72 h
In short: as §1

[1] = co-cultured fibroblast: BJHTERT
[2] = co-cultured fibroblast: none (monoculture)

SMILES	drug sensitivity score (KURAMOCHI; [1])	drug sensitivity score (KURAMOCHI; co-cultured fibroblast: WI38)	drug sensitivity score (KURAMOCHI; [2])	drug sensitivity score (OVCAR8; [1])	drug sensitivity score (OVCAR8; co-cultured fibroblast: WI38)	drug sensitivity score (OVCAR8; [2])
C#Cc1cccc(Nc2ncnc3cc(OCCOC)c(OCCOC)cc23)c1 [Erlotinib]	1.1 DSS	2.6 DSS	0.4 DSS	3.1 DSS	0 DSS	5 DSS
COc1cc([C@@H]2c3cc4c(cc3[C@@H](O[C@@H]3O[C@@H]5CO[C@@H](C)O[C@H]5[C@H](O)[C@H]3O)[C@H]3COC(=O)[C@H]23)OCO4)cc(OC)c1O [Etoposide]	11.7 DSS	13.8 DSS	16.1 DSS	11.8 DSS	13.1 DSS	13.9 DSS
CO[C@H]1C[C@@H]2CC[C@@H](C)[C@@](O)(O2)C(=O)C(=O)N2CCCC[C@H]2C(=O)O[C@H]([C@H](C)C[C@@H]2CC[C@@H](OCCO)[C@H](OC)C2)CC(=O)[C@H](C)/C=C(\C)[C@@H](O)[C@@H](OC)C(=O)[C@H](C)C[C@H](C)/C=C/C=C/C=C/1C [Everolimus]	5.6 DSS	5.6 DSS	0 DSS	8.4 DSS	0 DSS	2.2 DSS
C=C1C[C@@H]2[C@H](CC[C@]3(C)C(=O)CC[C@@H]23)[C@@]2(C)C=CC(=O)C=C12 [Exemestane]	0 DSS	0 DSS	0 DSS	1.3 DSS	0 DSS	0 DSS
CCn1c(=O)c(-c2ccc(Cl)cc2Cl)cc2cnc(Nc3ccc(N4CCNCC4)c(F)c3)nc21 [FRAX486]	9.7 DSS	4.9 DSS	9.2 DSS	5.8 DSS	9.8 DSS	13.1 DSS
Cc1cnc(Nc2ccc(OCCN3CCCC3)cc2)nc1Nc1cccc(S(=O)(=O)NC(C)(C)C)c1 [Fedratinib]	7.9 DSS	3.7 DSS	2.8 DSS	4.9 DSS	5.2 DSS	7.2 DSS
CON(C)C(=O)N1N=C(c2cc(F)ccc2F)S[C@@]1(CCCN)c1ccccc1 [Filanesib]	21.4 DSS	22.4 DSS	16.2 DSS	21.9 DSS	32.9 DSS	29.3 DSS
O=C(Nc1nc2cccc(-c3ccc(CN4CCS(=O)(=O)CC4)cc3)n2n1)C1CC1 [Filgotinib]	5.1 DSS	5.2 DSS	2.4 DSS	2.9 DSS	1.3 DSS	1.7 DSS
CC(C)(C)NC(=O)[C@H]1CC[C@H]2[C@@H]3CC[C@H]4NC(=O)C=C[C@]4(C)[C@H]3CC[C@]12C [Finasteride]	0 DSS	0 DSS	0 DSS	2.1 DSS	0 DSS	0 DSS
O=c1[nH]c(=O)n([C@H]2C[C@H](O)[C@@H](CO)O2)cc1F [Floxuridine]	19.9 DSS	19 DSS	20.7 DSS	18.7 DSS	17.9 DSS	26.7 DSS
Nc1nc(F)nc2c1ncn2[C@@H]1O[C@H](CO)[C@@H](O)[C@@H]1O [Fludarabine]	0.3 DSS	4.5 DSS	0 DSS	8 DSS	8.5 DSS	13.4 DSS
O=c1[nH]cc(F)c(=O)[nH]1 [Fluorouracil]	2.3 DSS	5.4 DSS	5 DSS	1.3 DSS	1.4 DSS	5.5 DSS
CC(C)C(=O)Nc1ccc([N+](=O)[O-])c(C(F)(F)F)c1 [Flutamide]	0 DSS	1.3 DSS	0 DSS	0 DSS	0 DSS	0 DSS
COc1cc2c(Oc3ccc(NC(=O)C4(C(=O)Nc5ccc(F)cc5)CC4)cc3F)ccnc2cc1OCCCN1CCOCC1 [Foretinib]	2.7 DSS	4.3 DSS	1.7 DSS	5.7 DSS	5.6 DSS	6.1 DSS
COc1cc(Nc2ncc(F)c(Nc3ccc4c(n3)N(COP(=O)(O)O)C(=O)C(C)(C)O4)n2)cc(OC)c1OC [Fostamatinib]	0 DSS	2 DSS	0.3 DSS	0 DSS	0 DSS	0 DSS
C[C@]12CC[C@@H]3c4ccc(O)cc4C[C@@H](CCCCCCCCC[S+]([O-])CCCC(F)(F)C(F)(F)F)[C@H]3[C@@H]1CC[C@@H]2O (stereo not given in full) [Fulvestrant]	0 DSS	0 DSS	0 DSS	0 DSS	7.2 DSS	0 DSS
CC1(C)OCCn2c1nc1c(N3CCOCC3)nc(-c3cnc(N)nc3)nc12 [GDC-0084]	12.7 DSS	11.5 DSS	12.1 DSS	8.3 DSS	3.8 DSS	11.9 DSS
O=C(NOCCO)c1ccc2cncn2c1Nc1ccc(I)cc1F [GDC-0623]	0 DSS	0 DSS	18.9 DSS	7.5 DSS	0 DSS	19.2 DSS
C[C@H]1CN(C2COC2)CCN1c1ccc(Nc2cc(-c3ccnc(N4CCn5c(cc6c5CC(C)(C)C6)C4=O)c3CO)cn(C)c2=O)nc1 [GDC-0853]	0 DSS	0 DSS	0 DSS	0 DSS	2.3 DSS	0 DSS
O[C@H](C[C@H]1c2c(F)cccc2-c2cncn21)[C@H]1CC[C@H](O)CC1 [GDC-0919]	1.3 DSS	0 DSS	0 DSS	0 DSS	0 DSS	1.6 DSS
